Results: patent publication US11618743B2, “Herbicidal compounds” (SYNGENTA PARTICIPATIONS AG, priority 2017, dated 2023)

Key:
Experiment in all cases: Post-emergence efficacy, Method A
Format in all cases: in vivo
Conditions in all cases: Application rate 500 g/Ha, evaluated after 13 days, 100=total damage to plant, 0=no damage
Eleusine indica (ELEIN) = tested on: Eleusine indica (ELEIN)
In short: (§1)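 Plants grown 14 days in pots of standard soil in a glasshouse (24/16 °C day/night, 14 h light, 65% humidity), then sprayed post-emergence with compound formulated in acetone and IF50 and diluted in 0.25% or 1% Empicol ESC70 + 1% ammonium sulphate. Damage scored after 13 days, 0–100 (100 = total damage).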

[1] = tested on: Chenopodium album (CHEAL)
In short: as §1

[2] = tested on: Ipomoea hederacea (IPOHE)
In short: as §1

[3] = tested on: Echinochloa crus-galli (ECHCG)
In short: as §1

[4] = tested on: Amaranthus palmeri (AMAPA)
In short: as §1

[5] = tested on: Digitaria sanguinalis (DIGSA)
In short: as §1

Setaria faberi (SETFA) = tested on: Setaria faberi (SETFA)
In short: as §1

Lolium perenne (LOLPE) = tested on: Lolium perenne (LOLPE)
In short: as §1

[6] = tested on: Euphorbia heterophylla (EPHHL)
In short: as §1

O=C(O)CC[n+]1ccc(-c2ncc(Cl)c(=O)[nH]2)cn1 [Compound A161, 3-[4-(5-chloro-6-oxo-1H-pyrimidin-2-yl)pyridazin-1-ium-1-yl]propanoic acid 2,2,2-trifluoroacetate]
Control of weed species after post-emergence application, ELEIN (Eleusine indica (ELEIN)): 20
Control of weed species after post-emergence application, CHEAL [1]: 70
Control of weed species after post-emergence application, IPOHE [2]: 20
Control of weed species after post-emergence application, ECHCG [3]: 20
Control of weed species after post-emergence application, AMAPA [4]: 30
Control of weed species after post-emergence application, DIGSA [5]: 20
Control of weed species after post-emergence application, SETFA (Setaria faberi (SETFA)): 10
Control of weed species after post-emergence application, LOLPE (Lolium perenne (LOLPE)): 10
Control of weed species after post-emergence application, EPHHL [6]: 50

O=S(=O)([O-])CC[n+]1ccc(-c2cccnc2)cn1 [Compound A179]
Control of weed species after post-emergence application, ELEIN (Eleusine indica (ELEIN)): 50
Control of weed species after post-emergence application, CHEAL [1]: 30
Control of weed species after post-emergence application, IPOHE [2]: 20
Control of weed species after post-emergence application, ECHCG [3]: 40
Control of weed species after post-emergence application, AMAPA [4]: 30
Control of weed species after post-emergence application, DIGSA [5]: 50
Control of weed species after post-emergence application, SETFA (Setaria faberi (SETFA)): 60
Control of weed species after post-emergence application, LOLPE (Lolium perenne (LOLPE)): 10
Control of weed species after post-emergence application, EPHHL [6]: 60

Nc1cc(-c2cc[n+](CCS(=O)(=O)[O-])nc2)nc(N)n1 [Compound A187]
pest or weed control at 500 g/ha (Eleusine indica (ELEIN); Eleusine indica, post-emergence, 312 h, read-out: Control of weed species after post-emergence application, ELEIN): 10%
pest or weed control at 500 g/ha ([1]; Chenopodium album, post-emergence, 312 h, read-out: Control of weed species after post-emergence application, CHEAL): 40%
pest or weed control at 500 g/ha ([2]; Ipomoea hederacea, post-emergence, 312 h, read-out: Control of weed species after post-emergence application, IPOHE): 20%
pest or weed control at 500 g/ha ([3]; Echinochloa crus-galli, post-emergence, 312 h, read-out: Control of weed species after post-emergence application, ECHCG): 20%
pest or weed control at 500 g/ha ([4]; Amaranthus palmeri, post-emergence, 312 h, read-out: Control of weed species after post-emergence application, AMAPA): 50%
pest or weed control at 500 g/ha ([5]; Digitaria sanguinalis, post-emergence, 312 h, read-out: Control of weed species after post-emergence application, DIGSA): 20%
pest or weed control at 500 g/ha (Setaria faberi (SETFA); Setaria faberi, post-emergence, 312 h, read-out: Control of weed species after post-emergence application, SETFA): 10%
pest or weed control at 500 g/ha (Lolium perenne (LOLPE); Lolium perenne, post-emergence, 312 h, read-out: Control of weed species after post-emergence application, LOLPE): 10%
pest or weed control at 500 g/ha ([6]; Euphorbia heterophylla, post-emergence, 312 h, read-out: Control of weed species after post-emergence application, EPHHL): 50%

NC(=O)c1cnc(-c2cc[n+](CCC(=O)O)nc2)cn1 [Compound A202, 3-[4-(5-carbamoylpyrazin-2-yl)pyridazin-1-ium-1-yl]propanoic acid 2,2,2-trifluoroacetate]
Control of weed species after post-emergence application, ELEIN (Eleusine indica (ELEIN)): 20
Control of weed species after post-emergence application, CHEAL [1]: 90
Control of weed species after post-emergence application, IPOHE [2]: 60
Control of weed species after post-emergence application, ECHCG [3]: 80
Control of weed species after post-emergence application, AMAPA [4]: 100
Control of weed species after post-emergence application, DIGSA [5]: 60
Control of weed species after post-emergence application, SETFA (Setaria faberi (SETFA)): 70
Control of weed species after post-emergence application, LOLPE (Lolium perenne (LOLPE)): 70
Control of weed species after post-emergence application, EPHHL [6]: 100

CCOP(=O)(CCC[n+]1ccc(-c2ncccn2)cn1)OCC.O=C([O-])C(F)(F)F [Compound A204]
Control of weed species after post-emergence application, ELEIN (Eleusine indica (ELEIN)): 0
Control of weed species after post-emergence application, CHEAL [1]: 20
Control of weed species after post-emergence application, IPOHE [2]: 0
Control of weed species after post-emergence application, ECHCG [3]: 0
Control of weed species after post-emergence application, AMAPA [4]: 10
Control of weed species after post-emergence application, DIGSA [5]: 0
Control of weed species after post-emergence application, SETFA (Setaria faberi (SETFA)): 0
Control of weed species after post-emergence application, LOLPE (Lolium perenne (LOLPE)): 0
Control of weed species after post-emergence application, EPHHL [6]: 0

N[C@@H](C[n+]1ccc(-c2ncccn2)cn1)C(=O)O [Compound A208, [(1S)-1-carboxy-2-(4-pyrimidin-2-ylpyridazin-1-ium-1-yl)ethyl]ammonium 2,2,2-trifluoroacetate]
Control of weed species after post-emergence application, ELEIN (Eleusine indica (ELEIN)): 60
Control of weed species after post-emergence application, CHEAL [1]: 80
Control of weed species after post-emergence application, IPOHE [2]: 20
Control of weed species after post-emergence application, ECHCG [3]: 30
Control of weed species after post-emergence application, AMAPA [4]: 100
Control of weed species after post-emergence application, DIGSA [5]: 40
Control of weed species after post-emergence application, SETFA (Setaria faberi (SETFA)): 60
Control of weed species after post-emergence application, LOLPE (Lolium perenne (LOLPE)): 10
Control of weed species after post-emergence application, EPHHL [6]: 50

N[C@H](CC[n+]1ccc(-c2ccncn2)cn1)C(=O)O [Compound A235]
Control of weed species after post-emergence application, ELEIN (Eleusine indica (ELEIN)): 10
Control of weed species after post-emergence application, CHEAL [1]: 40
Control of weed species after post-emergence application, IPOHE [2]: 20
Control of weed species after post-emergence application, ECHCG [3]: 30
Control of weed species after post-emergence application, AMAPA [4]: 10
Control of weed species after post-emergence application, DIGSA [5]: 40
Control of weed species after post-emergence application, SETFA (Setaria faberi (SETFA)): 30
Control of weed species after post-emergence application, LOLPE (Lolium perenne (LOLPE)): 0
Control of weed species after post-emergence application, EPHHL [6]: 20
